Literature values, collected in article PMC10878532, “Sperm Toolbox—A selection of small molecules to study human spermatozoa” (PLOS ONE, 2024).
Counter-ions that a name gives are not always drawn.

Test system: spermatozoa
Set-up: method as in per compound as listed in column References of Table 1
Conditions: summaries of reported effects; ref per compound as listed in Table 1; cited from earlier work

Cc1cc2c(C(C)C)c(O)c(O)c(C=O)c2c(O)c1-c1c(C)cc2c(C(C)C)c(O)c(O)c(C=O)c2c1O [Gossypol]
Published Phenotype: Causes azoospermia

CCCCCCCCCCCCCCCCOCC(COCC(F)(F)F)OP(=O)(O)OC (stereo not shown) [MJ33]
Published Phenotype: Prevents capacitation-associated tyrosine phosphorylation by PKA

COC(=O)c1c(C)[nH]c(C)c1C(=O)c1ccccc1Cc1ccccc1 [FPL 64176]
Published Phenotype: Modulates evoked Ca^2+ response

N=C(N)c1ccc2cc(OC(=O)c3ccc(N=C(N)N)cc3)ccc2c1 [Nafamostat]
Published Phenotype: Interferes with liquefaction; reduces sperm motility

Cc1ccc(S(=O)(=O)c2c(N)n(CC(O)c3ccc([N+](=O)[O-])cc3)c3nc4ccccc4nc23)cc1 (stereo not shown) [Oprea1_544341]
Published Phenotype: Reduces sperm motility; role of glycolysis in sperm motility

COc1cn(-c2ccc(-n3cccn3)cc2F)nc(-c2ccnn2-c2ccccc2)c1=O [Tak-063]
Published Phenotype: Enhances sperm motility

O=C(O)c1cccnc1Nc1cccc(C(F)(F)F)c1 [Niflumic acid]
Published Phenotype: Blocks acrosome reaction induced by recombinant rhZP3

CC(C)(O)c1ccn2c(-c3ccc(F)c(-c4ccc(F)cc4C#N)c3)cnc2c1F [TP 003]
Published Phenotype: Enhances sperm motility

NVP-AEW541
Published Phenotype: Inhibition of hyperactivity

CCCCCCOC(=O)[C@]1(O)C[C@@H]2O[C@@]1(C)n1c3ccccc3c3c4c(c5c6ccccc6n2c5c31)C(=O)NC4 [KT 5720]
Published Phenotype: Evokes Ca^2+ signaling in sperm

CC(=O)N1CCC(C(=O)N(CCCN2CCN(Cc3ccc(F)cc3)CC2)c2ccc(C)c(Cl)c2)CC1 [B07 hydrochloride]
Published Phenotype: Reduction of sperm motility

Cc1sc2c(c1C)C(c1ccc(Cl)cc1)=N[C@@H](CC(=O)OC(C)(C)C)c1nnc(C)n1-2 [JQ1]
Published Phenotype: Interferes with spermatogenesis; reduces sperm count; reduces motility

CC(C)Cn1cnc2c(N)nc3ccccc3c21 [Imiquimod]
Published Phenotype: Reduction of sperm motility; only sperm with X chromosome

CC(C)C(C(=O)OC(C#N)c1cccc(Oc2ccccc2)c1)c1ccc(Cl)cc1 (stereo not shown) [Fenvalerate]
Published Phenotype: Blocks progesterone induced acrosome reaction

Nc1nonc1C(=O)c1cccc(OCc2nc3ccccc3[nH]2)c1 [ASI-8]
Published Phenotype: Blocks soluble adenyl cyclase (sAC)

COC(=O)[C@]1(C)CC[C@]2(C)CC[C@]3(C)C4=CC=C5C(=CC(=O)C(O)=C5C)[C@]4(C)CC[C@@]3(C)[C@@H]2C1 [Pristimerin]
Published Phenotype: Modulates sperm motility; reduces progesterone induced Ca^2+ response

O=c1sn(-c2cccc3ccccc23)c(=O)n1Cc1ccccc1 [Tideglusib]
Published Phenotype: Spermicidal; vaginal treatment

CC(C)c1ccc2c(c1)CC[C@H]1[C@](C)(CN)CCC[C@]21C [Leelamine hydrochloride]
Published Phenotype: Modulates P4 evoked Ca^2+ response

O=c1c(-c2ccc(O)cc2)coc2cc(O)cc(O)c12 [Genistein]
Published Phenotype: Blocks progesterone induced acrosome reaction; blocks progesterone induced Ca^2+ response

c1cnc2c(c1)ccc1cccnc12 [Phenanthroline]
Published Phenotype: Inhibit proteolytic activity of PSA

Cc1[nH]c(/C=C2\C(=O)Nc3ccc(S(=O)(=O)Cc4c(Cl)cccc4Cl)cc32)c(C)c1C(=O)N1CCC[C@@H]1CN1CCCC1 [Pha-665752]
Published Phenotype: Modulates P4 evoked Ca^2+ response

COCC(=O)O[C@]1(CCN(C)CCCc2nc3ccccc3[nH]2)CCc2cc(F)ccc2[C@@H]1C(C)C [Mibefradil]
Published Phenotype: Blocks progesterone induced Ca^2+ response

O=S(=O)(NCCNC/C=C/c1ccc(Br)cc1)c1cccc2cnccc12 [H 89 dihydrochloride]
Published Phenotype: Evokes Ca^2+ signaling in sperm cells

Oc1c(Cl)cc(Cl)cc1Sc1cc(Cl)cc(Cl)c1O [Bithionol]
Published Phenotype: Blocks sAC

CO[C@H]1[C@@H](OC)C[C@H](C)[C@@H](OC)C2=CC(=O)C=C(NC(=O)/C(C)=C/C=C\[C@H](OC)[C@@H](OC(N)=O)/C(C)=C/[C@@H]1C)C2=O [Herbimycin a]
Published Phenotype: Blocks progesterone induced acrosome reaction; blocks progesterone induced Ca^2+ response

CCOCc1nc2c(N)nc3ccccc3c2n1CC(C)(C)O [Resiquimod]
Published Phenotype: Reduction of sperm motility; only sperm with X chromosome

Oc1c(Cl)cc(Cl)c(Cl)c1Cc1c(O)c(Cl)cc(Cl)c1Cl [Hexachlorophene]
Published Phenotype: Reduces sperm motility; blocks sAC

COc1ccc2nc([S@@+]([O-])Cc3ncc(C)c(OC)c3C)[nH]c2c1 [Esomeprazole]
Published Phenotype: Reduces sperm motility

O=C(Nc1ccc([N+](=O)[O-])cc1Cl)c1cc(Cl)ccc1O [Niclosamide]
Published Phenotype: Shape abnormality

Cn1c(=O)c2c(-c3ccccc3)n3c(c2n(C)c1=O)[C@H](c1ccc(Br)o1)Oc1ccc(C(=O)O)cc1-3 [BPO-27]
Published Phenotype: CTFR inhibitor patent

CCc1cc(Nc2nccc(-c3c(-c4ccc(OC)c(C(=O)Nc5c(F)cccc5F)c4)nc4ccccn34)n2)c(OC)cc1N1CCC(N2CCN(S(C)(=O)=O)CC2)CC1 [GSK1904529A]
Published Phenotype: Inhibition of hyperactivation

CCOc1ccccc1OCCN[C@H](C)Cc1ccc(OC)c(S(N)(=O)=O)c1 [Tamsulosin]
Published Phenotype: Interferes with ejaculation

[Na+].[Na+].[Na+].[O]=[V]([O-])([O-])[O-] [Sodium orthovanadate]
Published Phenotype: Blocks progesterone induced acrosome reaction; blocks progesterone induced Ca^2+ response

CC(C)Cn1c(=O)n(C)c(=O)c2[nH]cnc21 [IBMX]
Published Phenotype: Modulates capacitation

CCN(CC)C(=S)SSC(=S)N(CC)CC [Disulfiram]
Published Phenotype: immotile sperm; spermicidal

CN(C)CCCn1cc(C2=C(c3c[nH]c4ccccc34)C(=O)NC2=O)c2ccccc21 [GF 109203X]
Published Phenotype: Blocks progesterone induced acrosome reaction; blocks progesterone induced Ca^2+ response

C=C[C@@]1(C)CC(=O)[C@]2(O)[C@@]3(C)[C@@H](O)CCC(C)(C)[C@@H]3[C@H](O)[C@H](OC(C)=O)[C@@]2(C)O1 [Forskolin]
Published Phenotype: Stimulates acrosome reaction

CCCCN1C[C@H](O)[C@@H](O)[C@H](O)[C@H]1CO [Miglustat]
Published Phenotype: Interferes with spermatogenesis

COc1cc2nc(N(C)CCCNC(=O)C3CCCO3)nc(N)c2cc1OC (stereo not shown) [Alfuzosin]
Published Phenotype: Interferes with ejaculation

OCCN(CCO)c1nc(N2CCCCC2)c2nc(N(CCO)CCO)nc(N3CCCCC3)c2n1 [Dipyridamole]
Published Phenotype: Enhances sperm motility

CCCCC/C=C\C/C=C\C/C=C\C/C=C\CCCC(=O)NCCO [Anandamide]
Published Phenotype: Reduces sperm motility

CCOC(=O)CSc1nc(=O)c(NCC(=O)OC)n[nH]1 [Compound B4]
Published Phenotype: Reduces sperm motility

O=C(c1cccs1)c1no[n+]([O-])c1C(=O)c1cccs1 [HC-056456]
Published Phenotype: Blocks Ca^2+ and Na^+ entry; blocks onset of hyperactive motility

Nc1nc(Cl)cc(N(Cc2cccs2)C2CC2)n1 [LRE1]
Published Phenotype: Prevents hyperactivation

CC1(C)CC=C(c2ccccc2)c2cc(/C=C/c3ccc(C(=O)O)cc3)ccc21 [BMS-189453]
Published Phenotype: Interferes with spermatogenesis

CN(c1ccccc1CNc1nc(Nc2ccc3c(c2)CC(=O)N3)ncc1C(F)(F)F)S(C)(=O)=O [PF 431396]
Published Phenotype: Blocks capacitation
